Laboratory results as given in doi:10.1101/2025.09.30.679521v1, “Crystallographic characterisation and development of bi-substrate inhibitors of coronavirus nsp14 methyltransferase” (biorxiv, 2025).
Like-named read-outs stand apart in the source and are kept apart here.

Columns and labels:
SARS-CoV-2 nsp14 = molecular target: T1, SARS-CoV-2 nsp14 (Severe acute respiratory syndrome coronavirus 2, UniProt P0DTD1); assay: RapidFire MS methyltransferase assay; assay type: biochemical
T1 construct: gene rep
Text: RapidFire MS methyltransferase assay on SARS-CoV-2 nsp14

human RNMT = human RNMT (Homo sapiens, UniProt O43148); assay: RNMT methyltransferase assay (Gray et al.); assay type: biochemical
Text: RNMT methyltransferase assay (Gray et al.) on human RNMT

HCoV-229E nsp14 = molecular target: T2, HCoV-229E nsp14 (Human coronavirus 229E, UniProt P0C6X1); assay: RapidFire MS methyltransferase assay; assay type: biochemical
T2 construct: gene rep
Text: RapidFire MS methyltransferase assay on HCoV-229E nsp14

physchem [1] = assay: physchem
HCoV-NL63 nsp14 = HCoV-NL63 nsp14 (Human coronavirus NL63, UniProt P0C6X5); assay: RapidFire MS methyltransferase assay; assay type: biochemical
Text: RapidFire MS methyltransferase assay on HCoV-NL63 nsp14

in vitro = assay: in vitro; design: mouse liver microsomal stability; conditions: liver microsomes; Mouse liver microsomes; read-out: Mouse liver Mic T1/2 / min
Text: We initiated our structure-activity relationship (SAR) studies by investigating various replacements for the benzothiazole group, compounds 2-17, Table 1. […] Relatively flat SAR is observed across this subset of compounds, indeed a 6,5 or 6,6 aromatic system with the appropriate connectivity as compound 1 display relatively similar potencies. […] In general, the mouse microsomal clearance was rather low for this set of molecules, with no significant instabilities introduced, with perhaps the exception of compound 4. With no significant advantages in either potency or mouse microsomal clearance (Table S2) identified for this subset, the benzothiazole was taken forward into subsequent SAR studies. Table 2. Enzymatic inhibition against SARS-CoV-2 nsp14, human RNMT, CHI-logD and mouse microsomal stability.

physchem [2] = assay: physchem; remark: listed apart in the source

Sequence of human RNMT (O43148 whole entry): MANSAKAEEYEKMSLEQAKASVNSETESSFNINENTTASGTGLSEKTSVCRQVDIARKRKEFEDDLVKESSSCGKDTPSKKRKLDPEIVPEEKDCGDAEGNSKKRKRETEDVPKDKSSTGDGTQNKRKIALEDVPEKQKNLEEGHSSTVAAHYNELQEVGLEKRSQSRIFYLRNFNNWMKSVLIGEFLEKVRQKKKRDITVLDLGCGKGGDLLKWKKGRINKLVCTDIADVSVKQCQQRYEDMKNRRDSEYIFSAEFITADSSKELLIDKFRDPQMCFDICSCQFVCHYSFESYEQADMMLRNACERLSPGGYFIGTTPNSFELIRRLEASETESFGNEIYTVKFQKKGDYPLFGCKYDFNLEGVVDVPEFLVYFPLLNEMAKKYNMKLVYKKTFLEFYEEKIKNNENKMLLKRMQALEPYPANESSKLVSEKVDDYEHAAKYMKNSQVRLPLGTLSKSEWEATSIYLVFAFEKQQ
T2 sequence (P0C6X1 5593-6110): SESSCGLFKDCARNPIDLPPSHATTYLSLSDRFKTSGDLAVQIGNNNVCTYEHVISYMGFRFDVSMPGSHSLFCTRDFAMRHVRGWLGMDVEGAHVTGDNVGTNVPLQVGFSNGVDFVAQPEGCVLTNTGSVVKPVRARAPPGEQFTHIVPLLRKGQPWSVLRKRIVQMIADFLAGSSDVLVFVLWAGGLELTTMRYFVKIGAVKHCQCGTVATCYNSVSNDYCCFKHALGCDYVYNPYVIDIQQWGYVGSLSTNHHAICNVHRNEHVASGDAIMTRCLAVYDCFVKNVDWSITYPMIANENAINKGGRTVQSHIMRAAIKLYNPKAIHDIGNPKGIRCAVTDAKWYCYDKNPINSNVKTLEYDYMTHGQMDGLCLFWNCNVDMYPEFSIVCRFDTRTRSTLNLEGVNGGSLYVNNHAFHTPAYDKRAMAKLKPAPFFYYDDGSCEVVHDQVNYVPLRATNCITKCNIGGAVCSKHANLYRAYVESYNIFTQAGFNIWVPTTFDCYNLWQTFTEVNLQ
Sequence of HCoV-NL63 nsp14 (P0C6X5 5568-6085): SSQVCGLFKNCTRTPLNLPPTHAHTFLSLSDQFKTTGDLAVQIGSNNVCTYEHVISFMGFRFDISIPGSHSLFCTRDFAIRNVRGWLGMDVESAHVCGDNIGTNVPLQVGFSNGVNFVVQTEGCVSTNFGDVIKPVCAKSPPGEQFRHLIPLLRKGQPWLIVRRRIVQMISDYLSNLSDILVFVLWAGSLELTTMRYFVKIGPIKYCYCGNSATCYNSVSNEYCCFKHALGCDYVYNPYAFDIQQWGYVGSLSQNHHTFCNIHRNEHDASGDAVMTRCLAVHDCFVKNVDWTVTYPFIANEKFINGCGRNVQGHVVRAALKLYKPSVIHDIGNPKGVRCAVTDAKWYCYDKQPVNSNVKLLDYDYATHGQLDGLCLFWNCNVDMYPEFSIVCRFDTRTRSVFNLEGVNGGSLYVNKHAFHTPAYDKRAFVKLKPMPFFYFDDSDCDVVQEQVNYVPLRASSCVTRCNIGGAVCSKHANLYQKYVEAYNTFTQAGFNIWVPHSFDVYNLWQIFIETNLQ

Row | SMILES | IC50 (human RNMT) [nM] | half-life (in vitro) [min] | IC50 (SARS-CoV-2 nsp14; read-out: IC50) [nM] | IC50 (HCoV-229E nsp14; read-out: IC50) [nM] | IC50 (HCoV-NL63 nsp14; read-out: IC50) [nM] | logD (physchem [2]) | also measured
1 | Cc1ccc2ccc(SC[C@H]3O[C@@H](n4cnc5c(N)ncnc54)[C@H](O)[C@@H]3O)nc2c1 [compound 9] | 70500 | > 30 | – | – | – | – | IC50 (SARS-CoV-2 nsp14): 390 ± 60 nM; IC50 (HCoV-229E nsp14): 1400 ± 100 nM; logD (physchem [1]): 1.7; IC50 (HCoV-NL63 nsp14): 500 ± 110 nM
2 | Nc1ncnn2c([C@@H]3O[C@H](CCc4nc5ccccc5s4)[C@@H](O)[C@H]3O)ccc12 [compound 39] | – | – | 500 ± 400 | 2300 ± 50 | 760 ± 300 | 1.3 | –
3 | Nc1ncnn2c([C@@H]3O[C@H](CSc4ccc5ccccc5n4)[C@@H](O)[C@H]3O)ccc12 [compound 38, (2S,3R,4S,5S)-2-(4-Aminopyrrolo[2,1-f][1,2,4]triazin-7-yl)-5-(2-quinolylsulfanylmethyl) tetrahydrofuran-3,4-diol] | – | > 30 | – | – | – | – | –
4 | Nc1ncnn2c([C@@H]3O[C@H](CSc4nc5ccccc5s4)[C@@H](O)[C@H]3O)ccc12 [compound 35, (2S,3R,4S,5S)-2-(4-Aminopyrrolo[2,1-f][1,2,4]triazin-7-yl)-5-(1,3-benzothiazol-2-ylsulfanylmethyl)tetrahydrofuran-3,4-diol] | – | > 30 | – | – | – | – | –
5 | Cc1ccc2nc(SC[C@H]3O[C@@H](n4cnc5c(N)ncnc54)[C@H](O)[C@@H]3O)sc2c1 [compound 2] | > 100000 | > 30 | – | – | – | – | IC50 (SARS-CoV-2 nsp14): 260 ± 70 nM; IC50 (HCoV-229E nsp14): 410 ± 80 nM; logD (physchem [1]): 1.6; IC50 (HCoV-NL63 nsp14): 110 ± 20 nM
6 | Cc1ccc2nc(SC[C@H]3O[C@@H](c4ccc5c(N)ncnn45)[C@H](O)[C@@H]3O)sc2c1 [compound 36] | – | – | 340 ± 140 | – | – | 1.9 | –
7 | Nc1ncnc2c1ncn2[C@@H]1O[C@H](CSc2nc3ccccc3o2)[C@@H](O)[C@H]1O [compound 14, (2R,3R,4S,5S)-2-(6-Amino-9H-purin-9-yl)-5-((benzo[d]oxazol-2-ylthio)methyl) tetrahydrofuran-3,4-diol] | – | > 30 | – | – | – | – | –
8 | N#Cc1cn([C@@H]2O[C@H](CSc3nc4ccccc4s3)[C@@H](O)[C@H]2O)c2ncnc(N)c12 [compound 29] | > 100000 | 12.1 | – | – | – | 1.8 | IC50 (SARS-CoV-2 nsp14): 170 ± 20 nM; IC50 (HCoV-229E nsp14): 100 ± 7 nM; IC50 (HCoV-NL63 nsp14): 73 ± 26 nM
9 | Nc1ncnc2c1ncn2[C@@H]1O[C@H](CSc2cccn3cncc23)[C@@H](O)[C@H]1O [compound 12] | 9300 | – | 15000 ± 12000 | 790 ± 60 | 9500 ± 2300 | – | logD (physchem [1]): 0.3
10 | Nc1ncnn2c([C@@H]3O[C@H](CSc4ccc5ccccc5n4)[C@@H](O)[C@H]3O)ccc12 [compound 38] | – | – | 680 ± 110 | – | – | 1.7 | –
11 | Nc1ncnc2c1ncn2[C@@H]1O[C@H](CSc2ccc3ccccc3n2)[C@@H](O)[C@H]1O [compound 7] | > 100000 | > 30 | 330 ± 90 | 550 ± 80 | 240 ± 80 | – | logD (physchem [1]): 1.3
12 | Nc1ncnn2c([C@@H]3O[C@H](CSc4ccc5ccccc5c4)[C@@H](O)[C@H]3O)ccc12 [compound 37, (2S,3R,4S,5S)-2-(4-Aminopyrrolo[2,1-f][1,2,4]triazin-7-yl)-5-(2-naphthylsulfanylmethyl) tetrahydrofuran-3,4-diol] | – | 13.6 | – | – | – | – | –
13 | CCNC(=O)NCCSC[C@H]1O[C@@H](n2cnc3c(N)ncnc32)[C@H](O)[C@@H]1O [compound 5] | > 100000 | > 30 | 1900 ± 300 | – | – | – | logD (physchem [1]): -0.2
14 | Nc1ncnc2c1ncn2[C@@H]1O[C@H](CSc2nc3ccccc3[nH]2)[C@@H](O)[C@H]1O [compound 15] | > 100000 | – | 590 ± 110 | 860 ± 200 | 480 ± 100 | 0.3 | –
15 | CCc1cn([C@@H]2O[C@H](CSc3nc4ccccc4s3)[C@@H](O)[C@H]2O)c2ncnc(N)c12 [compound 31, (2R,3R,4S,5S)-2-(4-amino-5-ethyl-pyrrolo[2,3-d]pyrimidin-7-yl) -5-(1,3-benzothiazol-2-ylsulfanylmethyl)tetrahydrofuran-3,4-diol] | – | 3.9 | – | – | – | – | –
16 | CCc1cn([C@@H]2O[C@H](CSc3nc4ccccc4s3)[C@@H](O)[C@H]2O)c2ncnc(N)c12 [compound 31] | > 100000 | – | 250 ± 200 | 120 ± 10 | 52 ± 9 | 2.1 | –
17 | CNc1ncnc2c1ncn2[C@@H]1O[C@H](CSc2nc3ccccc3s2)[C@@H](O)[C@H]1O [compound 18, (2S,3S,4R,5R)-2-(1,3-Benzothiazol-2-ylsulfanylmethyl)-5-[6-(methylamino)purin-9-yl]tetrahydrofuran-3,4-diol] | – | 19.7 | – | – | – | – | –

Row | SMILES | IC50 (human RNMT) [nM] | half-life (in vitro) [min] | IC50 (SARS-CoV-2 nsp14; read-out: IC50) [nM] | IC50 (HCoV-229E nsp14; read-out: IC50) [nM] | IC50 (HCoV-NL63 nsp14; read-out: IC50) [nM] | logD (physchem [2]) | also measured
18 | CCCCCCSC[C@H]1O[C@@H](n2cnc3c(N)ncnc32)[C@H](O)[C@@H]1O [compound 4] | > 100000 | 13.2 | – | – | – | – | IC50 (SARS-CoV-2 nsp14): 6100 ± 1100 nM; IC50 (HCoV-229E nsp14): 9000 ± 1400 nM; logD (physchem [1]): 2; IC50 (HCoV-NL63 nsp14): 3300 ± 300 nM
19 | Nc1ncnc2c1ncn2[C@@H]1O[C@H](CSc2ccc3ccccc3c2)[C@@H](O)[C@H]1O [compound 6] | > 100000 | 26.9 | 310 ± 120 | 470 ± 60 | 230 ± 20 | – | logD (physchem [1]): 1.8
20 | Nc1ncnc2c1ncn2[C@@H]1O[C@H](CSc2cccc3cn[nH]c23)[C@@H](O)[C@H]1O [compound 16] | > 100000 | – | – | – | – | 0.7 | IC50 (SARS-CoV-2 nsp14; SAM and RNA cap substrate at KM (SAM 1.0 µM), unreliable (footnote: one IC50 measured > 100 µM)): 79000 ± 18000 nM
21 | C#Cc1cn([C@@H]2O[C@H](CSc3nc4ccccc4s3)[C@@H](O)[C@H]2O)c2ncnc(N)c12 [compound 30] | > 100000 | 10.1 | – | – | – | 2 | IC50 (SARS-CoV-2 nsp14): 54 ± 10 nM; IC50 (HCoV-229E nsp14): 33 ± 2 nM; IC50 (HCoV-NL63 nsp14): 29 ± 9 nM
22 | Cc1ccc2sc(SC[C@H]3O[C@@H](n4cnc5c(N)ncnc54)[C@H](O)[C@@H]3O)nc2c1 [compound 3] | > 100000 | 25.7 | – | – | – | – | IC50 (SARS-CoV-2 nsp14): 1200 ± 150 nM; logD (physchem [1]): 1.6
23 | Nc1ncnc2c1ncn2[C@@H]1O[C@H](CSc2nc3ccccc3[nH]2)[C@@H](O)[C@H]1O [compound 15, (2S,3S,4R,5R)-2-(((1H-Benzo[d]imidazol-2-yl)thio)methyl)-5-(6-amino-9H-purin-9-yl) tetrahydrofuran-3,4-diol] | – | > 30 | – | – | – | – | –
24 | Cc1ccc2nc(SC[C@H]3O[C@@H](c4ccc5c(N)ncnn45)[C@H](O)[C@@H]3O)sc2c1 [compound 36, (2S,3R,4S,5S)-2-(4-Aminopyrrolo[2,1-f][1,2,4]triazin-7-yl)-5-[(6-methyl-1,3-benzothiazol-2-yl)sulfanylmethyl]tetrahydrofuran-3,4-diol] | – | 18 | – | – | – | – | –
25 | Nc1ncnc2c1ccn2[C@@H]1O[C@H](CSc2nc3ccccc3s2)[C@@H](O)[C@H]1O [compound 27] | > 100000 | > 30 | 55 ± 20 | 41 ± 4 | 39 ± 6 | 1.6 | –
26 | Nc1ncnc2c1ncn2[C@@H]1O[C@H](CSc2nccs2)[C@@H](O)[C@H]1O [compound 11, (2R,3R,4S,5S)-2-(6-Aminopurin-9-yl)-5-(thiazol-2-ylsulfanylmethyl) tetrahydrofuran-3,4-diol] | – | > 30 | – | – | – | – | –
27 | Nc1ncnc2c1ccn2[C@@H]1C[C@H](CSc2nc3ccccc3s2)[C@@H](O)[C@H]1O [compound 28] | – | > 30 | – | – | – | 1.8 | –
28 | Nc1ncnc2c1ncn2[C@@H]1O[C@H](CSc2nccs2)[C@@H](O)[C@H]1O [compound 11] | > 100000 | – | > 100000 | > 50000 | > 50000 | – | logD (physchem [1]): 0.3
29 | Nc1ncnn2c([C@@H]3O[C@H](CSc4nc5ccccc5s4)[C@@H](O)[C@H]3O)ccc12 [compound 35] | – | – | 370 ± 130 | 190 ± 40 | 100 ± 20 | 1.5 | –
30 | Nc1ncnn2c([C@@H]3O[C@H](CCc4nc5ccccc5s4)[C@@H](O)[C@H]3O)ccc12 [compound 39, (2S,3R,4S,5R)-2-(4-Aminopyrrolo[2,1-f][1,2,4]triazin-7-yl)-5-[2-(1,3-benzothiazol-2-yl)ethyl]tetrahydrofuran-3,4-diol] | – | > 30 | – | – | – | – | –
31 | Nc1ncnc2c1ncn2[C@@H]1O[C@H](CSc2ccn3cncc3c2)[C@@H](O)[C@H]1O [compound 17] | 31100 | – | 6900 ± 4600 | 1100 ± 150 | 6400 ± 1600 | 0.1 | –
32 | Nc1ncnc2c1ncn2[C@@H]1O[C@H](CSc2nc3ccccc3o2)[C@@H](O)[C@H]1O [compound 14] | > 100000 | – | 670 ± 20 | 950 ± 20 | 660 ± 400 | 1 | –
33 | Nc1ncnn2c([C@@H]3O[C@H](CSc4ccc5ccccc5c4)[C@@H](O)[C@H]3O)ccc12 [compound 37] | – | – | 200 ± 70 | – | – | 2.2 | –
34 | Nc1ncnc2c1ncn2[C@@H]1O[C@H](CSc2ccn3cncc3c2)[C@@H](O)[C@H]1O [compound 17, (2R,3R,4S,5S)-2-(6-Aminopurin-9-yl)-5-(imidazo[1,5-a]pyridine-7-ylsulfanylmethyl) tetrahydrofuran-3,4-diol] | – | 11.1 | – | – | – | – | –
